Reference: patent publication US9816103B2, “Methods of enhancing the resistance of plants to bacterial pathogens” (priority 2008, dated 2017)
No end group written: not given here.

Tests used:
[1] = system: wild-type leaves of Arabidopsis thaliana Col-0; assay: Oxidative burst induced by elf18 peptides from phytopathogenic bacteria; format: cell-based; conditions: Col-0 leaves; relative to E. coli elf18 positive control
[2] = system: efr plants; assay: Seedling growth inhibition (fresh weight), Arabidopsis efr; format: in vivo, Arabidopsis thaliana; conditions: 0.1-1000 nM peptide, one week
Experimental: (§1) Wild-type, #16 and #18 Nb as well as Col and efr Arabidopsis thaliana seedlings were grown for one week onMS 1% sucrose agar plates, then transferred to liquid culture and were grown for one week in a serial dilution or elf18 or flg22. Dilutions of 0.1, 1, 10, 100 and 1000 nM were used for all five plant lines. Seedlings (n=4) were blotted on absorbent paper and their fresh weight was measured.

[3] = system: EFR (#18) Nb plants; assay: Oxidative burst, luminol-based assay, EFR transgenic Nb leaf discs; format: cell-based, Nicotiana benthamiana; conditions: 100 nM peptide
Experimental: (§2) To measure the production of reactive oxygen species (ROS) in leaf tissue, size #1 leaf discs (Nb; n=12, tomato; n=8) were floated overnight in water. Each disc was then transferred to a well containing an assay mix of luminol (200 μM) and peroxidase (20 μg/ml) in 100 μl water. Each well was then treated with either: assay mix, 100 nm elf18, or 100 nm flg22. Luminescence in a 96-well plate was subsequently measured using a Flash Varioskan luminometer.

[4] = system: Wild-type Nb plants; assay: Seedling growth inhibition (fresh weight), wild-type Nb; format: in vivo, Nicotiana benthamiana; conditions: 0.1-1000 nM peptide, one week
Experimental: as §1

[5] = system: EFR plants (#18 Nb); assay: Early and late defense marker gene expression by RT-PCR, EFR Nb seedlings; format: in vivo, Nicotiana benthamiana; conditions: 100 nM peptide, 0, 30, 60, 180 min
Experimental: (§3) Wild-type and #18 Nb were grown for one week on agar plates, then transferred to liquid culture and were grown for a further week. The expression of PAMP-induced genes was monitored over a time course. Seedlings were treated with 100 nM elf18 or flg22 for 0, 30, 60 or 180 minutes, and frozen in liquid nitrogen.
(§4) In brief: four elicited seedlings were thoroughly ground directly in the supplied extraction buffer in Eppendorf tubes using a pestle on an IKA RW 20 stirrer. Total RNAs were extracted using the Qiagen Rneasy Plant Mini kit. The quality of the extracted RNA was confirmed by running an ethidium bromide-stained agarose gel to reveal rRNAs. DNase treatment was performed using TURBO DNA-free kit (Ambion) and the concentration of total RNA was then measured using a Nanodrop. First strand cDNA synthesis was performed using SuperScript II Reverse Transcriptase (Invitrogen) in combination with Oligo(dT) prime on 2 μg of total RNA. One μl of cDNA was used in PCR under the following conditions: 95° C. 2 min; [95° C. 45 sec; 58° C. 45 sec; 55° C. 30 sec; 72° C. 1.5 min]×25; 72° C. 5 min. The genes used as defense markers were: CYP72D2 (cytochrome P450), FLS2 (receptor kinase for flg22), ACRE132 (putative RING finger protein) and WRKY22 (transcription factor). As loading control the constitutively expressed EF-1α housekeeping gene was also amplified.

[6] = system: EFR Nb; assay: Callose deposition, aniline blue staining, EFR Nb leaves; format: in vivo, Nicotiana benthamiana; conditions: 100 nM peptide infiltrated, ~16 hours, data not shown
Experimental: A solution of either water, 100 nM elf18, or 100 nM flg22 was used to infiltrate leaves of 4-week old wild-type and EFR Nb. Size #3 leaf discs (n=8) were sampled after ˜16 hours and destained in methanol overnight. Discs were rinsed in water, then left to stain overnight in a solution of 0.05% aniline blue in 50 mM phosphate buffer pH 8.5. Callose deposition at the plant cell periphery could then be viewed under a fluorescence microscope.

[7] = system: EFR plants (Nb expressing transgenic AtEFR); assay: Seedling growth inhibition (fresh weight), EFR Nb; format: in vivo, Nicotiana benthamiana; conditions: 0.1-1000 nM peptide, one week
Experimental: as §1

[8] = system: primary transformant tomato plants; assay: Oxidative burst, luminol-based assay, AtEFR tomato primary transformants; format: cell-based, Solanum lycopersicum; conditions: 100 nm peptide; ten positive tomato lines; data not shown
Experimental: (§5) To measure the production of reactive oxygen species (ROS) in leaf tissue, size #1 leaf discs (Nb; n=12, tomato and potato; n=8) were floated overnight in water. Each disc was then transferred to a well containing an assay mix of luminol (200 μM) and peroxidase (20 μg/ml) in 100 μl water. Each well was then treated with either: assay mix, 100 nm elf18, or 100 nm flg22. Luminescence in a 96-well plate was subsequently measured using a Flash Varioskan luminometer.
The detection of an oxidative burst is a relatively simple and reliable assay for defense activation. Cumulative luminescence was recorded for each plant over a time course of 40 minutes. […] Several other transformants were unable to express functional AtEFR as they give very little response to elf18, yet are able to respond to flg22 elicitation (data not shown). Other transformants, perhaps due to old age, were unable to respond to elf18 or flg22 treatment (data not shown). The 10 positive lines appear to have acquired EF-Tu responsiveness in this assay. Therefore seeds were harvested to grow homozygous lines for use in further assays to confirm of these initial results.

[9] = system: wild-type Nb; assay: Oxidative burst, luminol-based assay, wild-type Nb leaf discs; format: cell-based, Nicotiana benthamiana; conditions: 100 nM peptide
Experimental: as §2

[10] = system: Wild-type Col plants; assay: Seedling growth inhibition (fresh weight), Arabidopsis wild-type Col; format: in vivo, Arabidopsis thaliana; conditions: 0.1-1000 nM peptide, one week
Experimental: as §1

[11] = system: transgenic EFR potatoes (Desiree); assay: Oxidative burst, luminol-based assay, transgenic EFR potatoes; format: cell-based, Solanum tuberosum; conditions: 100 nm peptide; positive potato lines; data not shown
Experimental: as §5
Oxidative burst assays were also conducted with transgenic EFR potatoes (Desiree).

[12] = system: wild-type Nb; assay: Early and late defense marker gene expression by RT-PCR, wild-type Nb seedlings; format: in vivo, Nicotiana benthamiana; conditions: 100 nM peptide, 0, 30, 60, 180 min
Experimental: as §3, §4

Substance	eliciting activity (oxidative burst) [1]	seedling growth inhibition (fresh weight) [2]	release of reactive oxygen species (luminescence) [3]	seedling growth inhibition (fresh weight) [4]	defense marker gene induction [5]	callose deposition [6]	seedling growth inhibition (fresh weight) [7]	burst of ROS (cumulative luminescence over 40 minutes) [8]	release of reactive oxygen species (luminescence) [9]	seedling growth inhibition (fresh weight) [10]	burst of ROS [11]	defense marker gene induction [12]
elf18 Pseudomonas syringae pv. syringae DC3000: synthetic elf18 peptide derived from EF-Tu of Pseudomonas syringae DC3000 (pv. tomato per b37) (MAKEKFDRSLPHCNVGTI; ends and bridges not checked)	very low eliciting activity											
elf18 Xanthomonas campestris pv campestris 8004 and B100: synthetic elf18 peptide derived from EF-Tu of Xanthomonas campestris pv. campestris 8004 and B100 (MARAKFLREKLHVNVGTI; Xanthomonas campestris pv. campestris 8004)	very low eliciting activity											
elf18: EF-Tu epitope elf18: region of 18 amino-acids at the N-acetylated terminus of eubacterial EF-Tu recognized by EFR (Ac-MARAKFLREKLHVNVGTI)		insensitive	peak of luminescence corresponding to a burst of ROS	able to grow in the presence of up to 1000 nM elf18	marker gene expression which is at least as strong as under flg22 treatment	stronger response	responsive	considerable burst of ROS	never revealed a burst of ROS	decreasing growth as elf18 concentration increases	considerable burst of ROS	unable to elicit a significant amount of expression
